Experimental data reported in patent publication US8367648B2, “Substituted 16,17-annellated steroid compounds for use in womens healthcare” (MSD OSS B.V., priority 2009, dated 2013).
Where two headings read alike, the source gives them in different places.

Legend:
ERα [1] = biological target: T1, ERα (Homo sapiens, UniProt P03372); assay: In vitro nuclear receptor profile, ERα antagonism; type: cell-based
T1 sequence (P03372 1-595): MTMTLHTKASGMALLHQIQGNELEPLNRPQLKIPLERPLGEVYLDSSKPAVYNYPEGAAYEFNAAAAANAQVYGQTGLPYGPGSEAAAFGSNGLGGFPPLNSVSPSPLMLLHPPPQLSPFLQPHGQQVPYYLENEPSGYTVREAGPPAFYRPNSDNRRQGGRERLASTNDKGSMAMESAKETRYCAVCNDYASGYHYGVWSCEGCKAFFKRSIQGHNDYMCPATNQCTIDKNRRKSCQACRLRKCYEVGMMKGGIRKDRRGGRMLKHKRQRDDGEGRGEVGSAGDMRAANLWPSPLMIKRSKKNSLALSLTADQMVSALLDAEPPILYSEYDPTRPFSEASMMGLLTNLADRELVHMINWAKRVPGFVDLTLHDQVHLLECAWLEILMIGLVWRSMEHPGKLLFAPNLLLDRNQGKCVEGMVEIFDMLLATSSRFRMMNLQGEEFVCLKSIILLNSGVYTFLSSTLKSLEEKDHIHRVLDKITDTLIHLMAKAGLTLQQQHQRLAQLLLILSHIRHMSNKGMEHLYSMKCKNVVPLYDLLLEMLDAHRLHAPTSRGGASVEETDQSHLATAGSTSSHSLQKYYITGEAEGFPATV

ERβ [2] = biological target: T2, ERβ (Homo sapiens, UniProt Q92731); assay: In vitro nuclear receptor profile, ERβ antagonism; type: cell-based; details: for ERβ ant anteff: antagonist efficacy; for IC50: antagonist mode, read-out: ERβ ant IC50
T2 sequence (Q92731 whole entry): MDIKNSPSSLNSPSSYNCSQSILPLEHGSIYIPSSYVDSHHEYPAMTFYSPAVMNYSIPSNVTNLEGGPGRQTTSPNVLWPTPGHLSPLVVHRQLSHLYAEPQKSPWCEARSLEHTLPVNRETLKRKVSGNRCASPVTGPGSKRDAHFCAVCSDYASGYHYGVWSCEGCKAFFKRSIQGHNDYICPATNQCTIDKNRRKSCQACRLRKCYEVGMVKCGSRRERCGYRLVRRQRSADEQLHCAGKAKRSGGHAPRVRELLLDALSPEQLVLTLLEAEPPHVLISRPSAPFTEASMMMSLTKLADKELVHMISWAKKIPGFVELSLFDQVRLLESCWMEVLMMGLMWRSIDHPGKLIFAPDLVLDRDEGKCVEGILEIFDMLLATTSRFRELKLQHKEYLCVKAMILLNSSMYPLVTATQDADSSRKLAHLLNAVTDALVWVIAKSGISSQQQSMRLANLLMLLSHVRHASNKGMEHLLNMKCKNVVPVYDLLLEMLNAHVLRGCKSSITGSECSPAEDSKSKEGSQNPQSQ

[3] = biological target: T3, progesterone receptor B (PR-B) (Homo sapiens, UniProt P06401); assay: In vitro nuclear receptor profile, PR-B agonism; type: cell-based
T3 sequence (P06401 1-933): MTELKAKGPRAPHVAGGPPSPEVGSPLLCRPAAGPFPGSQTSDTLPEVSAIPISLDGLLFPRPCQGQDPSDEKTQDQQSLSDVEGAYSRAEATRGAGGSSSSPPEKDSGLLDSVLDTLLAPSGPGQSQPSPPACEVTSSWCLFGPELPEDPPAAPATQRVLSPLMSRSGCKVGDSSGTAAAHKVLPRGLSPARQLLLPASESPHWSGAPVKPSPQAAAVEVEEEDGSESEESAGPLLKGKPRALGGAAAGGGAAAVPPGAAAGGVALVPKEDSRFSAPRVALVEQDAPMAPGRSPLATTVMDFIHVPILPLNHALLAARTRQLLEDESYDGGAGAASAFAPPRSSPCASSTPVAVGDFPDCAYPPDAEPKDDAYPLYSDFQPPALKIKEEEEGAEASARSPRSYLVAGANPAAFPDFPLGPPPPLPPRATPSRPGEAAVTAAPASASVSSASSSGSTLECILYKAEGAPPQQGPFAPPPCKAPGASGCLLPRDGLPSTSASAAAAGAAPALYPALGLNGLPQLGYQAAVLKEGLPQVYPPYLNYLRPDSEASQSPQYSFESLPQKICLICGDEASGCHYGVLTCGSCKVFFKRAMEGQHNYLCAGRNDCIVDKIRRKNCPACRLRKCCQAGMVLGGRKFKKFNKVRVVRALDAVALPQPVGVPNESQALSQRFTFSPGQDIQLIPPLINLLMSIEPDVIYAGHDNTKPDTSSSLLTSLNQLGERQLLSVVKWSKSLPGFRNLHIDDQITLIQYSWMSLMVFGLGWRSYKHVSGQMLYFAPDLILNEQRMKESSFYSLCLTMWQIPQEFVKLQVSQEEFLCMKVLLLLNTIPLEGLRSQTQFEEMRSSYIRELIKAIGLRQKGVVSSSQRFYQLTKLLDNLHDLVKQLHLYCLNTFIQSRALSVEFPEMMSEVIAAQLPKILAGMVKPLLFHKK

ERα [4] = biological target: T1, ERα; assay: In vitro nuclear receptor profile, ERα agonism; type: cell-based; details: for ERα ago eff: agonist efficacy
PR-A [5] = biological target: T4, PR-A (Homo sapiens, UniProt P06401); assay: In vitro nuclear receptor profile, PR-A antagonism; type: cell-based; details: for PR-A ant anteff: antagonist efficacy; for IC50: antagonist mode, read-out: PR-A ant IC50
T4 sequence (P06401 1-769 isoform P06401-2): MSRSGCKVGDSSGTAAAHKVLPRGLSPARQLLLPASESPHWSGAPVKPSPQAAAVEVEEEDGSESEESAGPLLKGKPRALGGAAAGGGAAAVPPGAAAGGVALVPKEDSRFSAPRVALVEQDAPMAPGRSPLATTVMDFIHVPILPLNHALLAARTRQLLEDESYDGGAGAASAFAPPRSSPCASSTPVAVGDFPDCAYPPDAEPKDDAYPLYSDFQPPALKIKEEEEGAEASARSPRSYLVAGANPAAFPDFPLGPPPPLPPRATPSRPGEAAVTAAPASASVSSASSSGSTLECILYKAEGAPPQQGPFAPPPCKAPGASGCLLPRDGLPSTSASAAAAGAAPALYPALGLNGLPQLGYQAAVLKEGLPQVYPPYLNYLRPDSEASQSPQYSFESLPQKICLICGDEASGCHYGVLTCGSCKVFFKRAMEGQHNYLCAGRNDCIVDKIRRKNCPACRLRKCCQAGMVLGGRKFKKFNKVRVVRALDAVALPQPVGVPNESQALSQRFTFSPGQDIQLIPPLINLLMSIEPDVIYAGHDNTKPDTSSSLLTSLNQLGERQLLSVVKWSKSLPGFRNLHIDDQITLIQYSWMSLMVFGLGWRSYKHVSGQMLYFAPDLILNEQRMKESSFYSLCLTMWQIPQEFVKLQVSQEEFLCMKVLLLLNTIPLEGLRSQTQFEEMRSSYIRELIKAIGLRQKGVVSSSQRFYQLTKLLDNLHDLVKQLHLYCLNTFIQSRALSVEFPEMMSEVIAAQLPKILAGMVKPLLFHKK

[6] = rat, in vivo
[7] = biological target: T3, progesterone receptor B (PR-B); assay: In vitro nuclear receptor profile, PR-B antagonism; type: cell-based; details: for PR-B ant anteff: antagonist efficacy; for IC50: antagonist mode, read-out: PR-B ant IC50
ERβ [8] = biological target: T2, ERβ; assay: In vitro nuclear receptor profile, ERβ agonism; type: cell-based; details: agonist mode; read-out: ERβ ago EC50
PR-A [9] = biological target: T4, PR-A; assay: In vitro nuclear receptor profile, PR-A agonism; type: cell-based; details: for EC50: agonist mode, read-out: PR-A ago EC50
[10] = tested on: estrogen receptors in the CNS; assay: Lordosis model (facilitation of female sexual behaviour); type: in vivo
[11] = Embryofetal toxicity study in pregnant rats
endometrium = assay: 4-week phase I study, plasma exposure and endometrial biopsies; type: in vivo, human; details: biopsies on day 29, female human volunteers
[12] = as above; type: in vivo, human; details: plasma; female human volunteers; formed by metabolism from oral 10 mg daily Org 41621, 4 weeks; read-out: blood plasma level Cmax
bone mineral density = assay: AOST BMD (rat); type: in vivo
[13] = tested on: LH/FSH, uterine tissue, vaginal tissue, cholesterol metabolism, bone; assay: 4-week multiple dose study in ovariectomized female rats; type: in vivo, rat
ovulation [14] = assay: Ovulation inhibition in intact cycling female monkeys; type: in vivo, Macaca arctoides and Macaca fascicularis; details: 21 days once-a-day oral dosing in gelatine/mannitol
Procedure: The minimal active dose (MAD) for ovulation inhibition upon oral dosing in gelatine/mannitol was established at <=0.1 mg/kg per day.

androgen receptor (AR) = biological target: T5, androgen receptor (AR) (Homo sapiens, UniProt P10275); assay: Androgen receptor antagonism in vitro; type: cell-based; details: antagonist; read-out: IC50 as antagonist for the androgen receptor (AR)
T5 sequence (P10275 1-920): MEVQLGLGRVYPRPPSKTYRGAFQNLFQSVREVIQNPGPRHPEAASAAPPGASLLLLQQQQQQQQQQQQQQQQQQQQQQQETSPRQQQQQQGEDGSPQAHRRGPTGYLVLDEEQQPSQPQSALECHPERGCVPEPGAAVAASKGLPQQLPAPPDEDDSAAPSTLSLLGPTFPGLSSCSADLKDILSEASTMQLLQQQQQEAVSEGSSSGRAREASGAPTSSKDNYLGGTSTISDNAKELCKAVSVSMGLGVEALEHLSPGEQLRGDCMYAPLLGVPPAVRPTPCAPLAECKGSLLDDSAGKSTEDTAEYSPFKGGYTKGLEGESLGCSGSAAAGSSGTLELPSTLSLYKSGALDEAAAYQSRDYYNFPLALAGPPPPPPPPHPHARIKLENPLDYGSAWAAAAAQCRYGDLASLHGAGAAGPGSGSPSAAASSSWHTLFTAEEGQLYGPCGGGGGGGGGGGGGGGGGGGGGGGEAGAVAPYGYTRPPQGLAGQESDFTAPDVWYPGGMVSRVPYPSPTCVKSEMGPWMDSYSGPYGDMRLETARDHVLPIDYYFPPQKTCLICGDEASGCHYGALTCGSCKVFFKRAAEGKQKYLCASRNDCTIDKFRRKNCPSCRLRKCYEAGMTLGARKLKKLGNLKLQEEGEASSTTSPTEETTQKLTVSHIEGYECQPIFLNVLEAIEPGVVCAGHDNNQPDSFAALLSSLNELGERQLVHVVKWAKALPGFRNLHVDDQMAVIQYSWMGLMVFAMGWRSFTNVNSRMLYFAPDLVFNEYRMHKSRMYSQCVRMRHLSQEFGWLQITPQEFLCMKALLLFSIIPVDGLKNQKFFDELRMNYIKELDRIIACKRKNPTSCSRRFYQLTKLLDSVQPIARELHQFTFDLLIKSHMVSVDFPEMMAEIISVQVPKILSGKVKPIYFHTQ

ovulation [15] = assay: Ovulation inhibition in intact cycling female rats; type: in vivo, rat
Solubility in water = type: physicochemical; details: in comparison to Org 41621
From the text: As the diseases in which the compounds can be used are in the area of women's health care the vaginal route of administration is also contemplated. A medicine can be formulated in the form of a device for vaginal drug delivery such as in admixture with a flexible polymer for a removable intrauterine device or a removable vaginal device, for example in the form of a ring. Polymers or other additives can also be used for a parenteral implant, such as a subcutaneous implant for extended release of a drug according to the invention. As such, extended release formulations or other formulations aimed at particular absorption profiles are also within the scope of the invention. […] This offers an advantage for uses in the manufacture of medicines wherein higher solubility is desirable, such as a drinkable or injectable formulation.

vaginal tissue = assay: Allen-Doisy (rat); type: in vivo

SMILES: CCC[C@@H]1Cc2cc(O)ccc2[C@H]2CC[C@@]3(C)[C@@H](C[C@H]4CC[C@H](O)C[C@]43O)[C@H]12 [Org 41621, (7α,16β,17α,22β)-7-propyl-16,24-cyclo-19,21-dinorchola-1,3,5(10)-triene-3,17,22-triol, reference compound]
- IC50 (ERα [1]; antagonist mode, read-out: ERα ant IC50): > 1 µM
- ERβ ant anteff (ERβ [2]): 0.89
- IC50 (ERβ [2]): 0.0038 µM
- EC50 ([3]; agonist mode, read-out: PR-B ago EC50): > 0.1 µM
- ERα ago eff (ERα [4]): 0.95
- EC50 (ERα [4]; agonist mode, read-out: ERα ago EC50): 0.00028 µM
- PR-A ant anteff (PR-A [5]): 0.85
- IC50 (PR-A [5]): 0.0583 µM
- major fetal abnormalities (ribs, humerus, scapula) ([6]; female, po, 0.09 mg/kg): 3/273
- post implantation loss ([6]; female, po, 0.09 mg/kg): 15%
- major fetal abnormalities (ribs, humerus, scapula) ([6]; female, po, 0.15 mg/kg): 11/216
- post implantation loss ([6]; female, po, 0.15 mg/kg): 24%
- PR-B ant anteff [7]: 0.74
- IC50 [7]: 0.0208 µM
- EC50 (ERβ [8]): > 0.1 µM
- EC50 (PR-A [9]): > 0.1 µM

SMILES: CCC[C@@H]1Cc2cc(O)ccc2[C@H]2CC[C@@]3(C)[C@@H](C[C@H]4CCC(=O)C[C@]43O)[C@H]12 [Compound 10, (7α,16β,17α)-3,17-dihydroxy-7-propyl-16,24-cyclo-19,21-dinorchola-1,3,5(10)-trien-22-one]
- ERα ant anteff (ERα [1]; antagonist efficacy): 0.47
- activity at ERβ in words (ERβ [2]): full antagonist
- ERβ ant anteff (ERβ [2]): 0.83
- IC50 (ERβ [2]): 0.0084 µM
- PR-B ago eff ([3]; agonist efficacy): 0.49
- activity at PR-B in words ([3]; nanomolar activity): partial (ant)agonist
- EC50 ([3]; read-out: EC50 for progesterone receptor B (PR-B)): 0.0038 µM
- Lordosis (rat) MAD p.o. ([10]; p.o.): 0.14 mg/kg · day
- response in the lordosis model ([10]; rat): near full agonist response
- minor defects (wavy ribs) incidence ([11]; 0.1 mg/kg): 4/153
- major fetal defects ([11]; treated groups): No major defects
- endometrial histopathology scores (endometrium): mostly atrophic or inactive endometrium
- endometrial hyperplasia (endometrium): no signs of hyperplasia
- Cmax [12]: 16 nM
- AOST BMD (rat) MAD p.o. (bone mineral density): 0.12 mg/kg · day
- PR-A ant anteff (PR-A [5]): 0.54
- IC50 (PR-A [5]): 0.027 µM
- behaviour on vaginal tissue, cholesterol metabolism and bone (bone mineral density, osteocalcin) [13]: behaves as an estrogen receptor agonist
- circulating levels of LH and FSH ([13]; 4 weeks, oral and subcutaneous in gelatine/mannitol): effectively suppress
- stimulation of rat uterine tissue (uterine weight) ([13]; daily oral dosing for 4 weeks, FIG. 1): only mildly stimulates
- minimal active dose (MAD) for ovulation inhibition (ovulation [14]): <= 0.1 mg/kg per day
- dosages inducing early resorptions ([6]; female, po): > 0.3 mg/kg
- post implantation loss ([6]; female, po, 0.3 mg/kg): approx. 80%
- fetal effects ([6]; 0.3 mg/kg): No effects
- teratogenicity ([6]; 0.3 mg/kg): no evidence of teratogenicity
- PR-B ant anteff [7]: 0.55
- IC50 [7]: 0.0037 µM
- EC50 (ERβ [8]): > 10 µM
- IC50 (androgen receptor (AR)): 0.125 µM
- minimal active dose (MAD) to inhibit ovulation (ovulation [15]; intact regularly cycling female rats): 0.1 mg/kg per day
- Ovulation Inhibition (rat) MAD p.o. (ovulation [15]; rat, p.o.): 0.10 mg/kg · day
- solubility in water (Solubility in water): very well soluble in water
- PR-A ago eff (PR-A [9]; agonist efficacy): 0.46
- EC50 (PR-A [9]): 0.03 µM
- activity at PR-A in words (PR-A [9]; nanomolar activity): partial (ant)agonist
- Allen-Doisy (rat) MAD p.o. (vaginal tissue): 0.15 mg/kg · day
